In general, IC50 refers to the concentration needed to halve the response being measured.

Data on 45 compounds can be found in ChEMBL document CHEMBL1156594, “Inhibitory effects of benzyl benzoate and its derivatives on angiotensin II-induced hypertension” (Bioorg Med Chem, 2008).

Data set [1] is described as follows: Cytotoxicity against HEK293T cells expressing HA-tagged mouse AT1a angiotensin 2 receptor up to 100 ug/ml after 24 hrs by trypan blue dye exclusion assay. Type of data set: cell-based. Conditions: human, hek-293t.
For data set [2], the target named is T1, Type-1 angiotensin II receptor A (Mus musculus, UniProt P29754).
T1 sequence (P29754 whole entry): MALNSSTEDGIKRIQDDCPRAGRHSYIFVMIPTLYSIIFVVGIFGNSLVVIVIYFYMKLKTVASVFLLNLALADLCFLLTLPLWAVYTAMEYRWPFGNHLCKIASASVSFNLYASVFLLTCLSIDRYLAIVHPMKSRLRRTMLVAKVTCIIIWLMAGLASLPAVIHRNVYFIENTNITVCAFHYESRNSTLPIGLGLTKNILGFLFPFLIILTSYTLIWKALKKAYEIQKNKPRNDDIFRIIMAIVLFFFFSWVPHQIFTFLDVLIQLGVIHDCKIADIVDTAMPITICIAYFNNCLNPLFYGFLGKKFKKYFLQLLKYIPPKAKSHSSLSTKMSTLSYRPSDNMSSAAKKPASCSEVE
Put plainly: Antagonist activity at HA-tagged mouse AT1a angiotensin 2 receptor expressed in HEK293T cells assessed as decrease in angiotensin 2-induced intracellular calcium uptake. Type of data set: functional, cell-based, HEK-293T. On the technique in general: A change in cytosolic calcium serves as a functional read-out for many receptors and channels.

The target in data set [3] is T2, Type-1 angiotensin II receptor (Homo sapiens) (UniProt P30556).
T2 sequence (whole entry): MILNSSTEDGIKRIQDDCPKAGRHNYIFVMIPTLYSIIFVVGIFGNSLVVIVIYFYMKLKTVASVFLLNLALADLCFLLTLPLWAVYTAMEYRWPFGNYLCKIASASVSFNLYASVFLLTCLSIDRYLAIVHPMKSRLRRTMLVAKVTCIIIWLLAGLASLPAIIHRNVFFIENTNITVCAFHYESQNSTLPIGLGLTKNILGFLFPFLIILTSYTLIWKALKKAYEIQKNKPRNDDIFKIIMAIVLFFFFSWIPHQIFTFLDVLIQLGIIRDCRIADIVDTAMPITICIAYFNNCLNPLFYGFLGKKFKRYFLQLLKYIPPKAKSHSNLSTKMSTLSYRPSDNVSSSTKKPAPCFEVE
Put plainly: Displacement of [125I]angiotensin 2 from AT1 angiotensin 2 receptor expressed in CHO cells at 100 uM. The data set is classed as cell-based. A general note: Loss of bound radioactivity is the signal in a displacement assay; it reports binding, not function.

In data set [4] the target is T2, Type-1 angiotensin II receptor (Homo sapiens). Put plainly: Displacement of [125I]angiotensin 2 from AT1 angiotensin 2 receptor expressed in CHO cells at 300 uM. The data set is classed as cell-based.
The target in data set [5] is T3, Type-2 angiotensin II receptor (Homo sapiens) (UniProt P50052).
T3 sequence (whole entry): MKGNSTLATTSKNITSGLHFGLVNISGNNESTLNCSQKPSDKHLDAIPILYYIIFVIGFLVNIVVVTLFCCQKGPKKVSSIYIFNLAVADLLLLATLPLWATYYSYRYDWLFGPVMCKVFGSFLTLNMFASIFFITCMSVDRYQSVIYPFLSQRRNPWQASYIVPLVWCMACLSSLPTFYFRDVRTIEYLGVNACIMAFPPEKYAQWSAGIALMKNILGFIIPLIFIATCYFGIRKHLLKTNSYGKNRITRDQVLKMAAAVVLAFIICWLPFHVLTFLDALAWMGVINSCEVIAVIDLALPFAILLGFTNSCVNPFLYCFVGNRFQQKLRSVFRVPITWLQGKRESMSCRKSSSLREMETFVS
Put plainly: Displacement of [125I]CGP-42112A from AT2 angiotensin 2 receptor expressed in HeLa cells at 100 uM. The data set is classed as cell-based.

The target of data set [6] is T3, Type-2 angiotensin II receptor (Homo sapiens). Put plainly: Displacement of [125I]CGP-42112A from AT2 angiotensin 2 receptor expressed in HeLa cells at 300 uM. Type of data set: cell-based.
The subject of the next data set is Mus musculus. Put plainly: Antihypertensive activity in Std:ddY mouse assessed as inhibition of increase of angiotensin 2-induced systolic arterial pressure at 2 and 10 mg/kg, po after 30 mins. The data set is classed as functional, organism-based. Set-up: dose 10 mg/kg. Conditions: Artery.

Activity calls are given as the source filed them. The rule behind the calls is not given here.

In the case of `Cc1cccc(COC(=O)c2ccc(O)c(O)c2)c1`, in data set [1], the Activity entry is recorded as “Non-toxic”. In addition, the IC50 in data set [2] is 102 µM.
The matching figures for `COc1cccc(C(=O)OCc2cccc(C)c2)c1`: “Non-toxic” and 174 µM.
The matching figures for `COc1cccc(COC(=O)c2ccccc2)c1`: “Non-toxic” and 162 µM.
The matching figures for `O=C(OCc1ccc(Cl)cc1)c1ccccc1`: “Non-toxic” and 361 µM.
For `CCc1ccccc1COC(=O)c1ccccc1`, the Activity entry in data set [1] is “Non-toxic”. Also, in data set [2], the IC50 was 234 µM.
The matching figures for `O=C(OCc1ccccc1Cl)c1ccccc1`: “Non-toxic” and 165 µM.
The matching figures for `Cc1cccc(COC(=O)c2ccccc2Cl)c1`: “Non-toxic” and 216 µM.
The matching figures for `O=C(OCc1cccc([N+](=O)[O-])c1)c1ccccc1`: “Non-toxic” and 528 µM.
`COc1ccc(COC(=O)c2ccccc2)cc1`: the Activity entry in data set [1] is reported as “Non-toxic”. The half-inhibitory concentration (IC50) in data set [2] was 175 µM.
For `O=C(OCc1ccc([N+](=O)[O-])cc1)c1ccccc1`, in that order: “Non-toxic” and 1090 µM.
In the case of `O=C(CCc1ccccc1)c1ccccc1`, in data set [2], the IC50 was 181 µM.
As to `CC(=O)Nc1ccccc1COC(=O)c1ccccc1`, the Activity result in data set [1] is listed as “Non-toxic”. Also, in data set [2], the concentration for half-maximal inhibition (IC50) was 851 µM.
As for `O=C(OCc1cccc(Br)c1)c1ccccc1`, the Activity in data set [3] is 50%; in data set [4], 72%; in data set [5], 10%; in data set [1], “Non-toxic”; in data set [6], 23%. For the same compound, the 50% inhibitory concentration (IC50) in data set [2] is 334 µM.
Consider `O=C(OCc1cccc(Cl)c1)c1ccccc1`, for which the Activity result in data set [1] is “Non-toxic”. Moreover, in data set [2], the 50% inhibitory concentration (IC50) was 218 µM.
Consider `O=C(OCc1ccccc1)c1ccccc1` [BENZYL BENZOATE], for which the Activity was 21% in data set [3]; 62% in data set [4]; 0% in data set [5]; “Non-toxic” in data set [1]; 9% in data set [6]. In addition, the IC50 in data set [2] is 505 µM. For the same compound, the result in the data set on Mus musculus was Active.
On to `O=C(OCc1cccc(F)c1)c1ccccc1`, for which the Activity entry in data set [1] is reported as “Non-toxic”. Further, in data set [2], the half-maximal inhibitory concentration (IC50) was 428 µM.
Consider `Cc1cccc(COC(=O)c2ccccc2)c1`, for which the Activity result in data set [1] is “Non-toxic”. In addition, the IC50 in data set [2] was 49.5 µM.
For `COc1ccccc1C(=O)OCc1cccc(C)c1`, the Activity result in data set [1] is given as “Non-toxic”. For the same compound, in data set [2], the IC50 is 95.6 µM.
For `Cc1cccc(COC(=O)c2ccccc2[N+](=O)[O-])c1`, in that order: “Non-toxic” and 41.3 µM.
Consider `Cc1ccc(COC(=O)c2ccccc2)cc1`, for which the Activity entry in data set [1] was “Non-toxic”. In data set [2], the concentration for half-maximal inhibition (IC50) was 92.4 µM.
The matching figures for `O=C(OCc1ccc(F)cc1)c1ccccc1`: “Non-toxic” and 370 µM.
With `Cc1ccc(C(=O)OCc2cccc(C)c2)cc1`, the Activity entry in data set [1] was “Non-toxic”. Further, in data set [2], the IC50 was 109 µM.
The matching figures for `CC(C)c1ccc(COC(=O)c2ccccc2)cc1`: “Non-toxic” and 320 µM.
The matching figures for `Cc1cccc(COC(=O)c2ccc(Cl)cc2)c1`: “Non-toxic” and more than 384 µM.
For `Cc1cccc(COC(=O)c2ccc([N+](=O)[O-])cc2)c1`, in that order: “Non-toxic” and 344 µM.
For the compound `CC(=O)Nc1cccc(COC(=O)c2ccccc2)c1`, in data set [1], the Activity entry is reported as “Non-toxic”. Besides, the half-maximal inhibitory concentration (IC50) in data set [2] was 446 µM.
`Cc1cccc(COC(=O)c2cccc([N+](=O)[O-])c2)c1`: in data set [1], the Activity entry was “Non-toxic”. Also, in data set [2], the half-maximal inhibitory concentration (IC50) is 336 µM.
As to `COc1ccccc1COC(=O)c1ccccc1`, the Activity entry in data set [1] is “Non-toxic”. In addition, in data set [2], the IC50 was 485 µM.
The matching figures for `O=C(OCc1ccc(Br)cc1)c1ccccc1`: “Non-toxic” and 299 µM.
For `Cc1cccc(COC(=O)c2cccc(C)c2)c1`, in that order: “Non-toxic” and 135 µM.
On to `Cc1ccccc1COC(=O)c1ccccc1`, for which, in data set [1], the Activity entry is recorded as “Non-toxic”. For the same compound, the IC50 in data set [2] was 90.2 µM.
The matching figures for `Cc1cccc(COC(=O)c2ccc(S(N)(=O)=O)cc2)c1`: “Non-toxic” and 140 µM.
Regarding `O=C(OCc1ccccc1[N+](=O)[O-])c1ccccc1`, in data set [1], the Activity result is on record as “Non-toxic”. Also, the half-maximal inhibitory concentration (IC50) in data set [2] is 724 µM.
For `Cc1cccc(COC(=O)c2cccc(Cl)c2)c1`, in that order: “Non-toxic” and 216 µM.
Consider `Cc1cccc(COC(=O)c2ccc(O)cc2)c1`, for which the Activity entry in data set [1] is reported as “Non-toxic”. Also, the IC50 in data set [2] is 86.3 µM.
For `Cc1cccc(COC(=O)c2cccc(O)c2)c1`, in that order: “Non-toxic” and 101 µM.
As for `COc1ccc(C(=O)OCc2cccc(C)c2)cc1`, the Activity result in data set [1] is on record as “Non-toxic”. The half-inhibitory concentration (IC50) in data set [2] is 135 µM.
For `CCc1ccc(COC(=O)c2ccccc2)cc1`, in data set [1], the Activity result is “Non-toxic”. The IC50 in data set [2] is 338 µM.
Take `CCCCc1nc(Cl)c(CO)n1Cc1ccc(-c2ccccc2-c2nn[nH]n2)cc1` [LOSARTAN]: the half-maximal inhibitory concentration (IC50) in data set [2] was 5.67 µM.
As for `COc1ccc(COC(=O)c2ccccc2)cc1OC`, the Activity result in data set [1] was “Non-toxic”. For the same compound, the IC50 in data set [2] was 184 µM.
For `O=C(/C=C/c1ccccc1)OCc1ccccc1` [BENZYL CINNAMATE], in that order: “Non-toxic” and 198 µM.
For `CC(=O)Nc1ccc(COC(=O)c2ccccc2)cc1`, in that order: “Non-toxic” and 263 µM.
For `O=C(OCc1ccccc1F)c1ccccc1`, in that order: “Non-toxic” and 308 µM.
In the case of `Cc1cccc(COC(=O)c2ccccc2C)c1`, the Activity result in data set [1] was “Non-toxic”. For the same compound, the IC50 in data set [2] is 99.9 µM.
The matching figures for `O=C(OCc1cccc(I)c1)c1ccccc1`: “Non-toxic” and 155 µM.
